Assay results reported in patent US11407740B2 (priority 2018, dated 2022).
≈ marks a conversion by molar mass, not a printed value.

System: E. coli
Assay: Bacterial susceptibility testing, MIC by broth microdilution (CLSI)
Details: Escherichia coli, read-out: E. coli MIC, broth microdilution, 35° C., 18-24 h
Description: Minimal inhibitory concentrations (MIC) were determined by the broth microdilution method in accordance with the Clinical and Laboratory Standards Institute (CLSI) guidelines. In brief, organism suspensions were adjusted to a 0.5 McFarland standard to yield a final inoculum between 3×10^3 and 7×10^5 colony-forming units (CFU)/mL. Drug dilutions and inocula were made in sterile, cation adjusted Mueller-Hinton Broth (Beckton Dickinson). An inoculum volume of 100 μL was added to wells containing 100 μL of broth with 2-fold serial dilutions of drug.

Compound	MIC
O=c1[nH]cnc(CC(CO)c2ccc(C#Cc3ccc(CN4CC(N5CCOCC5)C4)cc3)cc2)c1O (stereo not shown) [Compound 51]	1 to 8 µg/mL (≈ 2 to 16 µM)
O=c1[nH]cnc(CC(CN[C@H]2C[C@H](F)C2)c2ccc(C#Cc3ccc(CN4CCOCC4)cc3)cc2)c1O (stereo partly shown) [Compound 78]	1 to 8 µg/mL (≈ 1.94 to 15.5 µM)
O=c1[nH]cnc(CC(CNC2CC(F)(F)C2)c2ccc(C#Cc3ccc(CN4CCOCC4)cc3)cc2)c1O (stereo not shown) [Compound 112]	< 1 µg/mL
N#C[C@H]1CCN(Cc2ccc(C#Cc3ccc(C(CO)Cc4nc[nH]c(=O)c4O)cc3)cc2)C1 (stereo partly shown) [Compound 34]	< 1 µg/mL
CC(CO)(Cc1nc[nH]c(=O)c1O)c1ccc(C#Cc2ccc(CN[C@H]3CCOC3)cc2)cc1 (mixture of isomers) [Compound 32]	< 1 µg/mL
COCCNCc1ccc(C#Cc2ccc(C(CO)Cc3nc[nH]c(=O)c3O)cc2)cc1 (stereo not shown) [Compound 57]	1 to 8 µg/mL (≈ 2.31 to 18.5 µM)
O=C(NCC(F)F)C(Cc1nc[nH]c(=O)c1O)N1Cc2cc(C#Cc3ccc(CN4CCOCC4)cc3)cn2C1=O (stereo not shown) [Compound 191]	< 1 µg/mL
O=C(C1CC1)N1CC[C@@H](NCc2ccc(C#Cc3ccc(C(CO)Cc4nc[nH]c(=O)c4O)cc3)cc2)C1 (stereo partly shown) [Compound 153]	< 1 µg/mL
COC[C@@H](Cc1nc[nH]c(=O)c1O)c1ccc(C#Cc2ccc(CN[C@H]3CCOC3)cc2)cc1 (single isomer, unassigned) [Compound 285]	< 1 µg/mL
O=C(CO)N(Cc1ccc(C#Cc2ccc(C(CO)Cc3nc[nH]c(=O)c3O)cc2)cc1)[C@@H]1CCNC1 (mixture of isomers) [Compound 154]	8 to 32 µg/mL
N#CC1CN(C[C@@H](Cc2nc[nH]c(=O)c2O)c2ccc(C#Cc3ccc(CN4CC[C@H](C#N)C4)cc3)cc2)C1 (single isomer, unassigned) [Compound 236]	< 1 µg/mL
O=c1[nH]cnc(CC(CO)c2ccc(C#Cc3ccc(CNC4C5COCC54)cc3)cc2)c1O (stereo not shown) [Compound 37]	< 1 µg/mL
O=c1[nH]cnc(CC(CNCCF)c2ccc(C#Cc3cnn(C4CCOCC4)c3)cc2)c1O (stereo not shown) [Compound 205]	1 to 8 µg/mL (≈ 2.15 to 17.2 µM)
N=S1(=O)CCC(NCc2ccc(C#Cc3ccc(C(CO)Cc4nc[nH]c(=O)c4O)cc3)cc2)C1 (stereo not shown) [Compound 56]	1 to 8 µg/mL (≈ 2.03 to 16.2 µM)
CC(=O)N1CC[C@@H](NCc2ccc(C#Cc3ccc(C(CO)Cc4nc[nH]c(=O)c4O)cc3)cc2)C1 (mixture of isomers) [Compound 232]	< 1 µg/mL
C[C@@H](CF)NCC(Cc1nc[nH]c(=O)c1O)c1ccc(C#Cc2ccc(CN3CC4(CCO4)C3)cc2)cc1 (mixture of isomers) [Compound 132]	< 1 µg/mL
C[C@@H](CF)NCC(Cc1nc[nH]c(=O)c1O)c1ccc(C#Cc2ccc(CNC3COC3)cc2)cc1 (mixture of isomers) [Compound 94]	< 1 µg/mL
O=c1[nH]cnc(CC(CN[C@@H]2CCS(=O)(=O)C2)c2ccc(C#Cc3ccc(CN4CCOCC4)cc3)cc2)c1O (single isomer, unassigned) [Compound 186]	< 1 µg/mL
C[C@H](CC#N)NCC(Cc1ncnc(O)c1O)c1ccc(C#Cc2ccc(CN3CCOCC3)cc2)cc1 (single isomer, unassigned) [Compound 100]	< 1 µg/mL
O=c1[nH]cnc(CC(CN2CC(O)C2)c2ccc(C#Cc3ccc(CN4CCOCC4)cc3)cc2F)c1O (stereo not shown) [Compound 231]	< 1 µg/mL
O=c1[nH]cnc(C[C@H](CNCCCF)c2ccc(C#Cc3ccc(CN4CCOCC4)cc3)cc2F)c1O (single isomer, unassigned) [Compound 237]	< 1 µg/mL
O=c1[nH]cnc(CC(CO)c2ccc(C#Cc3ccc(CN[C@@H]4CCN(CCO)C4)cc3)cc2)c1O (mixture of isomers) [Compound 155]	1 to 8 µg/mL

Same assay, conditions: broth microdilution, 35° C., 18-24 h

Compound	E. coli MIC
O=c1[nH]cnc(CC(CNC2CC2)c2ccc(C#Cc3ccc(CN4CCOCC4)cc3)cc2)c1O (stereo not shown) [Compound 119]	A (A: ≤1 μg/mL)
O=c1[nH]cnc(CC(CNCCCF)c2ccc(C#Cc3ccc(CN4CCOCC4)cc3)cc2)c1O (stereo not shown) [Compound 106]	B (B: >1 μg/mL to ≤8.0 μg/mL)
O=c1[nH]cnc(CC(CN[C@H]2C[C@H](F)C2)c2ccc(C#Cc3ccc(CN4CCOCC4)cc3)cc2)c1O (stereo partly shown) [Compound 79]	A (A: ≤1 μg/mL)
